# Measured values: patent US10183950B2, “Thienopyrimidine inhibitors of atypical protein kinase C” (Cancer Research Technology Limited, priority 2011, dated 2019)
# Target: T1, kinase-domain human PKCι (Homo sapiens, UniProt P41743)
# T1 construct: Recombinant, kinase-domain human PKCι is expressed and purified in-house; made in house
# T1 sequence (P41743 254-522 limits assumed): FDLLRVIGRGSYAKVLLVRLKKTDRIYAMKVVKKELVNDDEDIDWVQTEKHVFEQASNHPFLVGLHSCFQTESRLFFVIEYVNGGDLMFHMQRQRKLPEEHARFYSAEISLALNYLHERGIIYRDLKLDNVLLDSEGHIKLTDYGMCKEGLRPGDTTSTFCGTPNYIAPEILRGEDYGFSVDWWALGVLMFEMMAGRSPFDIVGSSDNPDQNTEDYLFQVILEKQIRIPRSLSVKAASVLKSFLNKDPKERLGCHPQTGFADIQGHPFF
# Assay: PKCι IC50 IMAP fluorescence polarisation assay, kinase-domain enzyme
# Format: biochemical
# Conditions: kinase domain PKCi at 2 μM ATP; read-out: IC50 in IMAP assay against kinase domain PKCi
row,IC50 [µM],SMILES
1,10 to 40,"C[C@H](N)CNc1nc(-c2ccncc2)nc2cc(-c3ccccc3)sc12 [compound 367, (S)-N*1*-(6-Phenyl-2-pyridin-4-yl-thieno[3,2-d]pyrimidin-4-yl)-propane-1,2-diamine]"
2,10 to 40,"C[C@@H](N)CNc1nc(-c2ccncc2)nc2cc(C(C)(C)C)sc12 [compound 308, (R)-N*1*-(6-tert-Butyl-2-pyridin-4-yl-thieno[3,2-d]pyrimidin-4-yl)-propane-1,2-diamine]"
3,0.1 to 1,"Cc1csc2c(N3CCNCC3)nc(-c3ccncc3)nc12 [compound 363, 7-Methyl-4-piperazin-1-yl-2-pyridin-4-yl-thieno[3,2-d]pyrimidine]"
4,1 to 10,"Clc1cccc2sc3c(OC[C@@H]4CCCN4)nc(-c4ccncc4)nc3c12 [compound 479, 9-Chloro-2-pyridin-4-yl-4-((S)-1-pyrrolidin-2-ylmethoxy)-benzo[4,5]thieno[3,2-d]pyrimidine]"
5,10 to 40,"NCCNc1nc(-c2ccncc2)nc2cc(-c3ccccc3)sc12 [compound 313, N*1*-(6-Phenyl-2-pyridin-4-yl-thieno[3,2-d]pyrimidin-4-yl)-ethane-1,2-diamine]"
6,10 to 40,"Cc1csc2c(OC[C@H]3CCCN3)nc(-c3ccncc3)nc12 [compound 476, 7-methyl-2-pyridin-4-yl-4-((R)-1-pyrrolidin-2-ylmethoxy)-thieno[3,2-d]pyrimidine]"
7,10 to 40,"Cc1csc2c(OC[C@@H](N)Cc3ccccc3)nc(-c3ccncc3)nc12 [compound 481, (S)-1-(7-Methyl-2-pyridin-4-yl-thieno[3,2-d]pyrimidin-4-yloxymethyl)-2-phenyl-ethylamine]"
8,1 to 10,"Clc1cccc2sc3c(N[C@@H]4CCNC4)nc(-c4ccncc4)nc3c12 [compound 384, (9-Chloro-2-pyridin-4-yl-benzo[4,5]thieno[3,2-d]pyrimidin-4-yl)-(R)-pyrrolidin-3-yl-amine]"

# Same assay, conditions: kinase domain PKCi at 2 μM ATP; read-out: IC50 in IMAP assay against kinase domain PKCi (Activity)
row,IC50 [µM],SMILES
1,1 to 10,"CC[C@H](N)COc1nc(-c2ccncc2)nc2sc3c(c12)CCCC3 [compound 150, (S)-1-(2-Pyridin-4-yl-5,6,7,8-tetrahydro-benzo[4,5]thieno[2,3-d]pyrimidin-4-yloxymethyl)-propylamine]"
2,0.1 to 1,"CC(C)Cc1csc2nc(-c3ccncc3)nc(NCCN)c12 [compound 28, N*1*-(5-Isobutyl-2-pyridin-4-yl-thieno[2,3-d]pyrimidin-4-yl)-ethane-1,2-diamine]"
3,1 to 10,"CC1CCc2c(sc3nc(-c4ccncc4)nc(NC[C@@H](C)N)c23)C1 (stereo partly drawn) [compound 23, (R)-N*1*-(7-Methyl-2-pyridin-4-yl-5,6,7,8-tetrahydro-benzo[4,5]thieno[2,3-d]pyrimidin-4-yl)-propane-1,2-diamine]"
4,10 to 40,"N[C@H](COc1nc(-c2ccncc2)nc2sc3c(c12)CCCC3)Cc1ccc2ccccc2c1 [compound 160, (S)-1-Naphthalen-2-ylmethyl-2-(2-pyridin-4-yl-5,6,7,8-tetrahydro-benzo[4,5]thieno[2,3-d]pyrimidin-4-yloxy)-ethylamine]"
5,1 to 10,"CCc1c(C)sc2nc(-c3ccncc3)nc(NC[C@H](C)N)c12 [compound 31, (S)-N*1*-(5-Ethyl-6-methyl-2-pyridin-4-yl-thieno[2,3-d]pyrimidin-4-yl)-propane-1,2-diamine]"
6,10 to 40,"CCc1c(C)sc2nc(-c3ccncc3)nc(NC[C@@H](C)N)c12 [compound 32, (R)-N*1*-(5-Ethyl-6-methyl-2-pyridin-4-yl-thieno[2,3-d]pyrimidin-4-yl)-propane-1,2-diamine]"
7,< 0.1,"C[C@H](N)CNc1nc(-c2ccncc2)nc2sc3c(c12)CCCC3 [compound 5, (S)-N*1*-(2-Pyridin-4-yl-5,6,7,8-tetrahydro-benzo[4,5]thieno[2,3-d]pyrimidin-4-yl)-propane-1,2-diamine]"
8,1 to 10,"CC[C@@H](N)CNc1nc(-c2ccncc2)nc2sc3c(c12)CCCC3 [compound 17, (R)-N*1*-(2-Pyridin-4-yl-5,6,7,8-tetrahydro-benzo[4,5]thieno[2,3-d]pyrimidin-4-yl)-butane-1,2-diamine]"
9,0.1 to 1,"C[C@H](N)COc1nc(-c2ccncc2)nc2sc3c(c12)CCCC3 [compound 144, (S)-1-Methyl-2-(2-pyridin-4-yl-5,6,7,8-tetrahydro-benzo[4,5]thieno[2,3-d]pyrimidin-4-yloxy)-ethylamine]"
10,1 to 10,"CC(C)c1cc2c(NCCN)nc(-c3ccncc3)nc2s1 [compound 40, N*1*-(6-Isopropyl-2-pyridin-4-yl-thieno[2,3-d]pyrimidin-4-yl)-ethane-1,2-diamine]"
11,0.1 to 1,"C[C@@H](N)CNc1nc(-c2ccncc2)nc2sc3c(c12)CCCCC3 [compound 89, (R)-N*1*-(2-Pyridin-4-yl-6,7,8,9-tetrahydro-5H-10-thia-1,3-diaza-benzo[a]azulen-4-yl)-propane-1,2-diamine]"
12,1 to 10,"CCc1cc2c(NC[C@H](C)N)nc(-c3ccncc3)nc2s1 [compound 34, (S)-N*1*-(6-Ethyl-2-pyridin-4-yl-thieno[2,3-d]pyrimidin-4-yl)-propane-1,2-diamine]"
13,0.1 to 1,"N[C@H](COc1nc(-c2ccncc2)nc2sc3c(c12)CCCC3)Cc1ccccc1 [compound 143, (S)-2-Phenyl-1-(2-pyridin-4-yl-5,6,7,8-tetrahydro-benzo[4,5]thieno[2,3-d]pyrimidin-4-yloxymethyl)-ethylamine]"
14,1 to 10,"c1cc(-c2nc(OC3CCCNC3)c3c4c(sc3n2)CCCC4)ccn1 (stereo not shown) [compound 141, 4-(Piperidin-3-yloxy)-2-pyridin-4-yl-5,6,7,8-tetrahydro-benzo[4,5]thieno[2,3-d]pyrimidine]"
15,1 to 10,"C[C@@H](N)COc1nc(-c2ccncc2)nc2sc3c(c12)CCCC3 [compound 145, (R)-1-Methyl-2-(2-pyridin-4-yl-5,6,7,8-tetrahydro-benzo[4,5]thieno[2,3-d]pyrimidin-4-yloxy)-ethylamine]"
16,0.1 to 1,"c1cc(-c2nc(N3C[C@@H]4C[C@H]3CN4)c3c4c(sc3n2)CCCC4)ccn1 [compound 18, 4-(1S,4S)-2,5-Diaza-bicyclo[2.2.1]hept-2-yl-2-pyridin-4-yl-5,6,7,8-tetrahydro-benzo[4,5]thieno[2,3-d]pyrimidine]"
17,10 to 40,"Brc1ccc(CN2CCN(c3nc(-c4ccncc4)nc4sc5c(c34)CCCC5)CC2)cn1 [compound 128, 4-[4-(6-Bromo-pyridin-3-ylmethyl)-piperazin-1-yl]-2-pyridin-4-yl-5,6,7,8-tetrahydro-benzo[4,5]thieno[2,3-d]pyrimidine]"
18,10 to 40,"c1cncc(CN2CCN(c3nc(-c4ccncc4)nc4sc5c(c34)CCCC5)CC2)c1 [compound 130, 2-Pyridin-4-yl-4-(4-pyridin-3-ylmethyl-piperazin-1-yl)-5,6,7,8-tetrahydro-benzo[4,5]thieno[2,3-d]pyrimidine]"
19,0.1 to 1,"NCCNc1nc(-c2cn[nH]c2)nc2sc3c(c12)CCCC3 [compound 181, N*1*-[2-(1H-Pyrazol-4-yl)-5,6,7,8-tetrahydro-benzo[4,5]thieno[2,3-d]pyrimidin-4-yl]-ethane-1,2-diamine]"
20,1 to 10,"CC(C)c1cc2c(NC[C@@H](N)Cc3ccccc3)nc(-c3ccncc3)nc2s1 [compound 75, (S)-N*1*-(6-Isopropyl-2-pyridin-4-yl-thieno[2,3-d]pyrimidin-4-yl)-3-phenyl-propane-1,2-diamine]"
21,1 to 10,"CC(C)C[C@H](N)COc1nc(-c2ccncc2)nc2sc3c(c12)CCCC3 [compound 138, (S)-3-Methyl-1-(2-pyridin-4-yl-5,6,7,8-tetrahydro-benzo[4,5]thieno[2,3-d]pyrimidin-4-yloxymethyl)-butylamine]"
22,1 to 10,"c1cc(-c2nc(OC[C@H]3CCCN3)c3c4c(sc3n2)CCCC4)ccn1 [compound 153, 2-Pyridin-4-yl-4-((R)-1-pyrrolidin-2-ylmethoxy)-5,6,7,8-tetrahydro-benzo[4,5]thieno[2,3-d]pyrimidine]"
23,0.1 to 1,"c1cc(-c2nc(N3CCCNCC3)c3c4c(sc3n2)CCCCC4)ccn1 [compound 86, 4-[1,4]Diazepan-1-yl-2-pyridin-4-yl-6,7,8,9-tetrahydro-5H-10-thia-1,3-diaza-benzo[a]azulene]"
24,0.1 to 1,"C[C@H]1CN(c2nc(-c3ccncc3)nc3sc4c(c23)CCCC4)CCN1 [compound 8, 4-((S)-3-Methyl-piperazin-1-yl)-2-pyridin-4-yl-5,6,7,8-tetrahydro-benzo[4,5]thieno[2,3-d]pyrimidine]"
25,1 to 10,"c1cc(-c2nc(OC3CNC3)c3c4c(sc3n2)CCCC4)ccn1 [compound 152, 4-(Azetidin-3-yloxy)-2-pyridin-4-yl-5,6,7,8-tetrahydro-benzo[4,5]thieno[2,3-d]pyrimidine]"
26,1 to 10,"c1cc(-c2nc(OC[C@H]3CCCCN3)c3c4c(sc3n2)CCCC4)ccn1 [compound 178, 4-((R)-1-Piperidin-2-ylmethoxy)-2-pyridin-4-yl-5,6,7,8-tetrahydro-benzo[4,5]thieno[2,3-d]pyrimidine]"
27,0.1 to 1,"CC1CCc2c(sc3nc(-c4ccncc4)nc(NCCN)c23)C1 (stereo not shown) [compound 21, N*1*-(7-Methyl-2-pyridin-4-yl-5,6,7,8-tetrahydro-benzo[4,5]thieno[2,3-d]pyrimidin-4-yl)-ethane-1,2-diamine]"
28,0.1 to 1,"N[C@H](CNc1nc(-c2cn[nH]c2)nc2sc3c(c12)CCCC3)Cc1ccccc1 [compound 183, (S)-3-Phenyl-N*1*-[2-(1H-pyrazol-4-yl)-5,6,7,8-tetrahydro-benzo[4,5]thieno[2,3-d]pyrimidin-4-yl]-propane-1,2-diamine]"
29,10 to 40,"NCCNc1nc(-c2ccnc(F)c2)nc2sc3c(c12)CCCC3 [compound 98, N*1*-[2-(2-Fluoro-pyridin-4-yl)-5,6,7,8-tetrahydro-benzo[4,5]thieno[2,3-d]pyrimidin-4-yl]-ethane-1,2-diamine]"
